Assay results published in PMC10310851 (Signal Transduction and Targeted Therapy, 2023).
pIC50: −log10 of the molar value. Read-outs that look alike come from different tables or passages of the source.

What was measured:
[1] = system: NSCLC with ROS1 rearrangements; parameters: method as in PMID 28520527; conditions: cited from earlier work
[2] = system: ROS1-rearranged NSCLC; parameters: method as in PMID 34511132; conditions: first-line, cited from earlier work
[3] = system: ROS1-rearranged NSCLC; parameters: method as in PMID 31416808; conditions: 2/6, METROS trial ref 13; cited from earlier work
[4] = system: ROS1-positive advanced NSCLC; parameters: method as in PMID 29596029; conditions: cited from earlier work
[5] = parameters: method as in PMID 31751012; conditions: cited from earlier work
[6] = system: Lung cancer cell NCI-H2228; experiment: Growth inhibition of cancer cell lines: NCI-H2228; assay type: cell-based; conditions: Homo sapiens
[7] = system: Lung cancer cell NCI-H3122; experiment: Growth inhibition of cancer cell lines: NCI-H3122; assay type: cell-based; conditions: Homo sapiens
[8] = parameters: method as in PMID 25264305; conditions: cited from earlier work
[9] = system: Gastric cancer cell SNU-5; experiment: Growth inhibition of cancer cell lines: SNU-5; assay type: cell-based; conditions: Homo sapiens
[10] = system: ROS1 fusion-positive NSCLC; conditions: cited from earlier work
[11] = no radiotherapy within the preceding 6 months ref 21
[12] = radiotherapy within the preceding 6 months ref 21

For `Cc1cc(Nc2ncc(Cl)c(Nc3ccccc3S(=O)(=O)C(C)C)n2)c(OC(C)C)cc1C1CCNCC1` [ceritinib], the “Intracranial ORR” value [1] is listed as 29%.

For `C[C@@H](Oc1cc(-c2cnn(C3CCNCC3)c2)cnc1N)c1c(Cl)ccc(F)c1Cl` [crizotinib], the “Median PFS” value ([2]; non-CD74-ROS1 fusions ref 27) is given as 21.0 months, the “Median PFS” value ([2]; tumor harboring CD74-ROS1 ref 27) is given as 17.0 months and the “Intracranial ORR” value [3] is given as 33%. For the same compound, the “ORR by IRC” value ([4]; OO 12-01 study ref 15) was 71.7%, the DCR [4] was 88.2% and the “Median PFS” value [4] was 15.9 months. For the same compound, the “Rate of drug dose interruptions due to TRAEs” value [4] was 22.8%, the “Any grade elevated ALT” value [5] was 14% and the “Any grade elevated AST” value [5] was 22%. For the same compound, the “Grade III or higher elevated ALT” value [5] was 4%, the “Grade III or higher elevated AST” value [5] was 2% and the pIC50 [6] was 6.45. The pIC50 [7] was 6.67, the Dizziness [8] was 16% and the Dysgeusia [8] was 18%. The “Ophthalmological AEs” value [8] was 82%, the Reduced neutrophil count [8] was 12% and the pIC50 [9] was 7.54.

In the case of `CN1CCN(c2ccc(C(=O)Nc3n[nH]c4ccc(Cc5cc(F)cc(F)c5)cc34)c(NC3CCOCC3)c2)CC1` [entrectinib], the DCR [10] is given as 75.8%, the “Intracranial ORR” value [10] is given as 79.2% and the “Median PFS” value [10] is given as 15.7 months. The “Median intracranial PFS” value ([10]; measurable central nervous system lesions at baseline ref 21) was 12.0 months, the “Intracranial ORR” value [10, 11] was 46.2% and the “Intracranial PFS” value [10, 11] was 8.8 months. For the same compound, the ORR ([10]; overall patient population ref 21) was 67.1%, the ORR ([10]; patients who had brain metastases at baseline ref 21) was 62.5% and the ORR ([10]; patients with CD74-ROS1 fusions ref 21) was 72.9%. The “Intracranial ORR” value [10, 12] was 60% and the “Intracranial PFS” value [10, 12] was 16.1 months.
